Results reported in paper PMC7470102, “Synthesis, anticancer evaluation and molecular docking studies of new benzimidazole- 1,3,4-oxadiazole derivatives as human topoisomerase types I poison” (Journal of Enzyme Inhibition and Medicinal Chemistry, 2020).
Read-outs that look alike come from different tables or passages of the source.

What was measured:
[1] = system: NIH3T3 (mouse embryo fibroblast cell line); test: MTT cytotoxicity assay, NIH3T3 healthy cells; type: cell-based; settings: read-out: IC50 against NIH3T3
Procedure: (§1) The anticancer activity of compounds 5a–5o were screened according to the MTT assays. The MTT assays were performed as previously described[32]^,[33]. Anticancer activity of final compounds was assessed against five different cancer cell lines A549 (lung carcinoma cell line), HeLa (cervical cell line), MCF-7 (human breast adenocarcinoma cell line), HepG2 (human liver carcinoma cell line) and C6 (rat glioma cell line) cell lines as well as NIH3T3 (mouse embryo fibroblast cell line). Doxorubicin and Hoechst 33342 were used as the reference drugs in the MTT assays. It is crucial that an anticancer agent affects the cancer cell line but having minimal or no side-effect on healthy cells. For this purpose, the cytotoxic effects of the active compounds on the NIH3T3 cell line were investigated (Table 2).

[2] = system: MCF-7 (human breast adenocarcinoma cell line); test: MTT cytotoxicity assay, MCF-7; type: cell-based; settings: read-out: IC50 against MCF-7
Procedure: as §1, with “assays.” for “assays. It is crucial that an anticancer agent affects the cancer cell line but having minimal or no side-effect on healthy cells. For this purpose, the cytotoxic effects of the active compounds on the NIH3T3 cell line were investigated (Table 2).”
(§2) The benzimidazole-1,3,4-oxadiazole derivatives (5a-5o) were tested their cytotoxic effects in vitro using five cancer cell line A549 (lung carcinoma cell line), HeLa (cervical cell line), MCF-7 (human breast adenocarcinoma cell line), HepG2 (human liver carcinoma cell line) and C6 (rat glioma cell line) cell lines as well as NIH3T3 (mouse embryo fibroblast cell line). Doxorubicin and Hoechst 33342 were used for this study as a reference drugs.

[3] = system: HepG2 (human liver carcinoma cell line); test: MTT cytotoxicity assay, HepG2; type: cell-based; settings: read-out: IC50 against HepG2
Procedure: as §1, with “assays.” for “assays. It is crucial that an anticancer agent affects the cancer cell line but having minimal or no side-effect on healthy cells. For this purpose, the cytotoxic effects of the active compounds on the NIH3T3 cell line were investigated (Table 2).”
as §2

HeLa cells = test: DNA synthesis inhibition assay (BrdU), HeLa; type: cell-based; settings: 48 h, 5b 0.698, 5l 0.224, 5n 0.205, doxorubicin 14.280 µg/mL
Procedure: (§3) The BrdU cell proliferation method was performed to analyse the effects of the active compounds on proliferation of cancer cells. Cancer cells were seeded into the 96-well plates at a density of 1 × 10^4 cells. Compounds were added into the each well at three different concentrations (IC50/2, IC50 and 2xIC50) and the plates were incubated for 24 h. At the end of the incubation period, BrdU solution was added and cells were reincubated for 2 h at 37 °C. Anti-BrdU-POD ([…]) was added and the mixture was incubated for 90 min. Microplates were washed with PBS for three times. After adding substrate solution, the mixture was incubated for 15 min. OD of the wells were determined at 492 nm. Proliferation of control cells was assessed as 100% and growth inhibition % of cells, treated with test compounds and […] were calculated.
(§4) According to the MTT assay, compound 5n for A549 cell line; compounds 5a, 5d, 5e, 5o for MCF-7 cell line; compound 5k for C6 cell line; compound 5a for HepG2 cell line; compounds 5b, 5l and 5n for HeLa cell line were selected for the DNA synthesis inhibition assay. A549, C6, MCF-7, HepG2 and HeLa cells were incubated with three different concentrations (IC50/2, IC50, and […]) of the compounds for 24 and 48 h time periods. […] Doxorubicin was used as positive control.

Topoisomerase I = molecular target: T1, Topoisomerase I (Homo sapiens, UniProt P11387); test: DNA topoisomerase I assay (relaxation of supercoiled plasmid DNA, agarose gel); type: biochemical; settings: agarose gel electrophoresis, camptothecin positive control, Figure 12
T1 construct: purchased TopoGen TG1018-2
T1 sequence (P11387 1-765): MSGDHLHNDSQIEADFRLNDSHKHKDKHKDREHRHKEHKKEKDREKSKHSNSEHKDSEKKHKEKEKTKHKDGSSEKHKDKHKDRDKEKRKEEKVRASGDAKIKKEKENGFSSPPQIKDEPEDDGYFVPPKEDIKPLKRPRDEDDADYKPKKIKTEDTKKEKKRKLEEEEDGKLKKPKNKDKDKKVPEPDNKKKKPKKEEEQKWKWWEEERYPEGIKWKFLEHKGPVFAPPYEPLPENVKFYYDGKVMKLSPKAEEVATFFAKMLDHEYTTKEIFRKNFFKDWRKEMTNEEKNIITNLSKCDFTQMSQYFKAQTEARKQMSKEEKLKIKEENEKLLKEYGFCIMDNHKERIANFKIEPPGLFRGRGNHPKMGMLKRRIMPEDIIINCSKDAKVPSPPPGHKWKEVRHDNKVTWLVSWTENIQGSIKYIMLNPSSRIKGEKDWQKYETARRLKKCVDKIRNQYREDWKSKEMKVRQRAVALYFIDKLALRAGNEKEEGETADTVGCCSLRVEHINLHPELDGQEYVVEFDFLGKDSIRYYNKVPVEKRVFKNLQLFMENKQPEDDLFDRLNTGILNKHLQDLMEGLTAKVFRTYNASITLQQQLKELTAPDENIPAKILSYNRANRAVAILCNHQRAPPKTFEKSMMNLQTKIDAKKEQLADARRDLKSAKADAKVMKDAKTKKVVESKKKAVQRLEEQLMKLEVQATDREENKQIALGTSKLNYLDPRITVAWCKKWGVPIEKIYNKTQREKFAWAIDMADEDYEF
Procedure: The topoisomerase I inhibition activities of final compounds were measured as relaxation of supercoiled plasmid DNA using agarose gel electrophoresis and camptothecin was used as a positive control. The assay was carried out in a final volume of 20 µl reaction volume containing 2 µl of 10xTGS Buffer, 6 µl water, 2 µl supercoiled plasmid DNA, 2 µl test compound, 2 µl of Top1, 2 ul 10% SDS, 2 µl proteinase K, 2 µl DNA loading dye. After incubation of reaction mixtures at 37 °C for 30 min, electrophoresis was done on a 1% agarose gel at a potential 50 V for 75 min using 1xTAE buffer.
To determine whether the DNA intercalation properties of compounds 5a, 5b, 5d, 5e, 5k, 5l, 5n and 5o might result in Topo I inhibition, agarose gel electrophores is assay was performed to evaluate the Topo I inhibitory activity of them via agarose-gel electrophoresis and CPT was used as the positive control. The TopoGEN Topoisomerase I Drug Screening Kit were optimised and implemented to accomplish this goal.
In a previous studies, it was said that the compounds poisoning topoisomerase caused the formation of nick bands in such gel appearances, while the formation of Supercoiled bands was said to be caused by catalytic inhibitors that bound to either DNA or enzyme[40]^,[41].

[4] = system: A549 (lung carcinoma cell line); test: MTT cytotoxicity assay, A549; type: cell-based; settings: read-out: IC50 against A549
Procedure: as §1, with “assays.” for “assays. It is crucial that an anticancer agent affects the cancer cell line but having minimal or no side-effect on healthy cells. For this purpose, the cytotoxic effects of the active compounds on the NIH3T3 cell line were investigated (Table 2).”
as §2

[5] = system: HeLa (cervical cell line); test: MTT cytotoxicity assay, HeLa; type: cell-based; settings: read-out: IC50 against HeLa
Procedure: as §1, with “assays.” for “assays. It is crucial that an anticancer agent affects the cancer cell line but having minimal or no side-effect on healthy cells. For this purpose, the cytotoxic effects of the active compounds on the NIH3T3 cell line were investigated (Table 2).”
as §2

[6] = system: C6 (rat glioma cell line); test: MTT cytotoxicity assay, C6; type: cell-based; settings: read-out: IC50 against C6
Procedure: as §1, with “assays.” for “assays. It is crucial that an anticancer agent affects the cancer cell line but having minimal or no side-effect on healthy cells. For this purpose, the cytotoxic effects of the active compounds on the NIH3T3 cell line were investigated (Table 2).”
as §2

A549 cell line = test: Flow cytometric analysis (Annexin V/PI), A549; type: cell-based; settings: at IC50 concentrations
Procedure: (§5) Death pathway of the carcinogenic cell lines was detected by Annexin V-FITC Apoptosis Detection Kit (BD, Pharmingen) as reported previously described. […] FCS Express software was used to display the percent of normal and apoptotic cells at different stages. […] The experiments were carried out in triplicates.
(§6) Annexin V/PI staining on tested cancer cells treated with the active compounds was performed to investigate induction of apoptosis. […] According to the MTT assay, compound 5n for A549 cell line; compounds 5a, 5d, 5e, 5o for MCF-7 cell line; compound 5k for C6 cell line; compound 5a for HepG2 cell line; compounds 5b, 5l and 5n for HeLa cell line were selected for the flow cytometric analysis. Furthermore, flow cytometry studies were performed for reference drug doxorubicin. Flow cytometric analysis diagrams of tested compounds and doxorubicin at IC50/2, IC50, and 2xIC50 concentrations on cancer cells were presented in Figures 7–11.

MCF-7 cell line = test: Flow cytometric analysis (Annexin V/PI), MCF-7; type: cell-based, human; settings: MCF-7 cells
Procedure: as §5, §6

C6 cell line = test: Flow cytometric analysis (Annexin V/PI), C6; type: cell-based, rat; settings: at IC50 concentrations
Procedure: as §5, §6

HepG2 cell line = test: Flow cytometric analysis (Annexin V/PI), HepG2; type: cell-based, human; settings: at IC50 concentrations, 24 h incubation
Procedure: as §5, §6

A549 cells = test: DNA synthesis inhibition assay (BrdU), A549; type: cell-based; settings: 48 h
Procedure: as §3, §4

HepG2 cells = test: DNA synthesis inhibition assay (BrdU), HepG2; type: cell-based, human; settings: 5a at 5.695 µg/mL, doxorubicin at 16.482 µg/mL
Procedure: as §3, §4

MCF7 cells = test: DNA synthesis inhibition assay (BrdU), MCF7; type: cell-based, human; settings: 48 h, 5e at 7.318 µg/mL, doxorubicin at 10.525 µg/mL
Procedure: as §3, §4

HeLa cell line = test: Flow cytometric analysis (Annexin V/PI), HeLa; type: cell-based
Procedure: as §5, §6

[7] = Homo sapiens, MCF7, MCF-7 cell line
[8] = 5n at 5.39 µg/mL, doxorubicin at 6.21 µg/mL
[9] = 5n at 7.39 µg/mL, doxorubicin at 12.42 µg/mL
[10] = 5n at 14.77 µg/mL, doxorubicin at 24.84 µg/mL

| Topo I inhibition activity (Topoisomerase I) | SMILES | IC50 ([1]; Mus musculus) | IC50 [2, 7] | IC50 ([3]; Homo sapiens) | % DNA synthesis inhibition (HeLa cells) | IC50 ([4]; Homo sapiens, A549, MTT assay) | IC50 ([5]; Homo sapiens) | IC50 ([6]; Rattus norvegicus) | percentage of apoptotic cells (A549 cell line) | percentage of apoptosis (early + late apoptotic cells) (MCF-7 cell line) | percentage of apoptotic cells (HepG2 cell line) | % DNA synthesis inhibition (A549 cells; [8]) | % DNA synthesis inhibition (A549 cells; [9]) | % DNA synthesis inhibition (A549 cells; [10]) | % DNA synthesis inhibition (HepG2 cells; 24 h) | % DNA synthesis inhibition (HepG2 cells; 48 h) | % DNA synthesis inhibition (MCF7 cells) | percentage of apoptotic cells (HeLa cell line) | other results |
| --- | --- | --- | --- | --- | --- | --- | --- | --- | --- | --- | --- | --- | --- | --- | --- | --- | --- | --- | --- |
| potent topo I inhibition activity | CCN1CCN(C(=O)CSc2nnc(-c3ccc4nc(-c5ccc(O)cc5)[nH]c4c3)o2)CC1 [5b, 2-((5–(2-(4-Hydroxyphenyl)-1H-benzo[d]imidazol-6-yl)-1,3,4-oxadiazol-2-yl)thio)-1–(4-ethyl-piperazin-1-yl) -ethane-1-on] | 944.4 ± 7.62 µM | ≥ 100 µM | ≥ 100 µM | 49.70% | ≥ 100 µM | 0.698 ± 0.032 µM | ≥ 100 µM |  |  |  |  |  |  |  |  |  |  |  |
|  | COc1cccc2c1C(=O)c1c(O)c3c(c(O)c1C2=O)C[C@@](O)(C(=O)CO)C[C@@H]3O[C@H]1C[C@H](N)[C@H](O)[C@H](C)O1 [Dox., doxorubicin, reference compound] | 1111 ± 8.25 µM | 10.5 ± 0.472 µM | 16.5 ± 0.804 µM |  | 12.4 ± 0.521 µM | 14.3 ± 0.704 µM | 28.7 ± 1.23 µM | 19.2% | 12.7% | 9.4% | 62.78% | 73.43% | 81.22% | 42.80% | 74.22% | 84.60% |  | inhibition at 14.28 µg/mL (HeLa cells; Homo sapiens): 66.5%; percentage of apoptotic cells (C6 cell line): 13.7% |
| potent topo I inhibition activity | CN1CCN(C(=O)CSc2nnc(-c3ccc4nc(-c5ccc(O)cc5)[nH]c4c3)o2)CC1 [5a, 2-((5–(2-(4-Hydroxyphenyl)-1H-benzo[d]imidazol-6-yl)-1,3,4-oxadiazol-2-yl)thio)-1–(4-methyl-piperazin-1-yl) -ethane-1-on] | 39.1 ± 1.94 µM | 5.7 ± 0.254 µM | 5.7 ± 0.283 µM |  | 43.3 ± 1.79 µM | 14 ± 0.65 µM | 15.6 ± 0.615 µM |  | 15.4% | 13.2% |  |  |  | 60.89% | 72.05% |  |  |  |
| potent topo I inhibition activity | CCOc1ccc(-c2nc3ccc(-c4nnc(SCC(=O)N5CCN(CC)CC5)o4)cc3[nH]2)cc1 [5l, 2-((5-(2-(4-Ethoxyphenyl)-1H-benzo[d]imidazol-6-yl)-1,3,4-oxadiazol-2-yl)thio)-1–(4-ethyl-piperazin-1-yl)-ethane-1-on] | 113 ± 5.47 µM | ≥ 100 µM | ≥ 100 µM | 56.01% | 31 ± 1.53 µM | 0.224 ± 0.011 µM | ≥ 100 µM |  |  |  |  |  |  |  |  |  | 8.6% |  |
| potent topo I inhibition activity | O=C(CSc1nnc(-c2ccc3nc(-c4ccc(O)cc4)[nH]c3c2)o1)N1CCN(c2ncccn2)CC1 [5e, 2-((5–(2-(4-Hydroxyphenyl)-1H-benzo[d]imidazol-6-yl)-1,3,4-oxadiazol-2-yl)thio)-1-(4-(pyrimidine-2-yl)-piperazin-1-yl)-ethane-1-on] | 54 ± 2.68 µM | 7.32 ± 0.352 µM | ≥ 100 µM |  |  | ≥ 100 µM | ≥ 100 µM |  | 13.1% |  |  |  |  |  |  | 93.81% |  |  |
| potent topo I inhibition activity | CCOc1ccc(-c2nc3ccc(-c4nnc(SCC(=O)N5CCN(c6ccccn6)CC5)o4)cc3[nH]2)cc1 [5n] |  |  |  | 57.65% |  |  |  | 13% |  |  | 66.00% | 68.25% | 78.17% |  |  |  | 15.2% | IC50 [1]: 189 ± 8.73 µM; IC50 ([2]; MCF-7 cell line): ≥ 100 µM; IC50 [3]: ≥ 100 µM; IC50 ([4]; MTT assay): 7.39 ± 0.325 µM; IC50 [5]: 0.205 ± 0.01 µM; IC50 [6]: ≥ 100 µM |
